System: bee colonies
Test: 4th test in the hives: winter mortality of colonies, California 2020
Format: in vivo, bees
Conditions: counted Dec. 31, 2020, 55 hives, Batch 1 27.3%
Protocol: A second treatment campaign was carried out in the autumn-winter 2020 in apiaries located in California, near San Francisco. This region is particularly vulnerable to winter mortality of bee colonies which can reach as high as 80% in some years.
220 hives distributed over 13 different apiaries in California to the south of San Francisco were selected. Each apiary comprised between 8 and 24 hives. The bees were of different types: 165 hives of Wildflower bees (VSH-Italian) and 55 hives of Beeweaver bees (VSH-Carniolan).
The hives were Langstroth 2 body type hives (15 frames compared to 10 for Dadant hives in Europe). […] 20, 2020 and Oct. 12, 2020.
1 apiary only contained Wildflower type bees. 2 apiaries only contained Beeweaver type bees. The other 10 apiaries comprised Wildflower and Beeweaver bees that were evenly distributed between the 4 batches.
The product Li—Mo2O4-EDTA was introduced on Sep. 20, 2020, and/or on Oct. 12, 2020 by syringe in the form of a concentrated aqueous solution (0.8 g/L) in a sugar syrup into the frame feeder. 10 mL of this solution were introduced and dispersed in 3.5 liters of sugar syrup at 65% sugar and introduced into the hive. […] The control hives only received sugar syrup.
The dead colonies were counted on Dec. 31, 2020. A total of 28 colonies were dead on 31 Dec. 2020, that is 12.73% of the total. The mortality rate is identical for Wildflower bees (21/165) and Beeweaver bees (7/55). The mortality per batch is distributed as follows: • Batch 1: 15 hives/55 hives, that is 27.3% losses • Batch 2: 0 hive/55 hives, that is 0% losses • Batch 3: 10 hives/55 hives, that is 18.2% losses • Batch 4: 3 hives/55 hives, that is 5.5% losses.

For O.O.O.O.O.O.O=C([O-])CN(CCN(CC(=O)[O-])CC(=O)[O-])CC(=O)[O-].[Li+].[Li+].[O]=[Mo+]12[O][Mo+]1(=[O])[O]2 [Li—Mo2O4-EDTA, Li2[Mo2O4 (EDTA)]·6H2O], which “Mortality of colonies (losses)” value (Batch 2: fed on Sep. 20, 2020, 8 mg) is on record?
The value was 0%.

And the “Mortality of colonies (losses)” value (Batch 3: fed on Oct. 12, 2020, 8 mg)?
Its value is 18.2%.

What about the “Mortality of colonies (losses)” value (Batch 4: fed on Sep. 20, 2020 and Oct. 12, 2020) of the same compound?
The value was 5.5%.

— patent US12582721B2, “Molybdenum-based feed supplement for bees” (UNIVERSITE DE VERSAILLES—SAINT-QUENTIN-EN-YVELINES, priority 2020, dated 2026)
